# Assay results published in ChEMBL document CHEMBL1201862, “PubChem BioAssay data set” (2004).
# The source made the active and inactive calls. For most assays here, no stated cut-off is given here; in the data, actives have a measured EC50 and inactives only a lower limit.
# Columns and labels:
# H9c2 = experiment: cells; type: functional, cell-based; conditions: Rattus norvegicus, H9c2, Myocardium;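 further: confirmatory concentration-response retest of ultra-high-throughput screening hits for modulation of myocardial damage; cell death induced by hydrogen peroxide oxidative stress; compound pretreatment for 60 min then peroxide exposure for 2 h; potency is for protecting the cells against peroxide damage rather than for killing them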
# [1] = biological target: Luciferin 4-monooxygenase (Photinus pyralis, UniProt P08659); experiment: inhibition of purified Photinus pyralis luciferase – biochemical, luminescence, dose response (AID 1891)
# [2] = Luminescence Cell-Based Dose Confirmation HTS to Identify Inhibitors of Platelet Dense Granule Release. [Related pubchem assays: 1663 (Primary HTS), 1678 (Summary of Project)]; type: functional
# [3] = reduction of Shn3 3'UTR-driven luciferase in osteoblasts – cell-based, Clone20 osteoblasts, firefly luciferase, cherry-picked, dose response (AID 624132); type: functional;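 further: firefly luciferase luminescence from reporter carrying the Shn3 3'UTR in osteoblasts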
# [4] = Luminescence Cell-Based Dose Response HTS to Identify Inhibitors of 5'UTR Stem-Loop Driven Prion Protein mRNA Translation in H4 Neuroglioblastoma Cells. [Related pubchem assays: 1827 (Project Summary), 1813 (Primary HTS)]; type: functional
# [5] = luciferase reporter signal suppression in cells – H4 neuroglioma cells, luminescence, dose response (AID 1990); type: functional, cell-based
# [6] = alpha-synuclein stem-loop luciferase translation blockers – H4 neuroglioma cells, luminescence, confirmation (AID 1988); type: functional, cell-based
# [7] = biological target: T1, Microphthalmia-associated transcription factor (Homo sapiens, UniProt O75030); experiment: reducers of TRPM1 reporter luminescence, concentration series – cell-based, SK-MEL-5, cherry-picked, set 3, MITF inhibitor project, dose response (AID 493073); type: functional;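 further: SK-MEL-5 melanoma cells with luciferase driven by the MITF target TRPM1 promoter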
# T1 sequence (O75030 whole entry): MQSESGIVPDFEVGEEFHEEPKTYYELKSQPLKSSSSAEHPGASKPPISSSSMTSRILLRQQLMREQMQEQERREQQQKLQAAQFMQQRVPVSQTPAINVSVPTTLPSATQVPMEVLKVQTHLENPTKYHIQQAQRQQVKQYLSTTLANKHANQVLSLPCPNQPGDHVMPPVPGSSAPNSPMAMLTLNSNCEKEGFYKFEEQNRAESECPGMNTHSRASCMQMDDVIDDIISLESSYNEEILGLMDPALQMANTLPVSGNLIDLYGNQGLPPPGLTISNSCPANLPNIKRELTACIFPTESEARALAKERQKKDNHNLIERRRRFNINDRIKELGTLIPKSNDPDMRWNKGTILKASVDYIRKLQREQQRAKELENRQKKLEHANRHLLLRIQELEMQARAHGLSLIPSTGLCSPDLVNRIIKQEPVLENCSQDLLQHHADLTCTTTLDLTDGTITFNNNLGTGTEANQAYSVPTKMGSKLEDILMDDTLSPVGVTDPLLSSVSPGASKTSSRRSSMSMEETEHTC
# Cytochrome P450 3A4 = Cytochrome P450 3A4 (Homo sapiens, UniProt P08684);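 further: CYP3A4 tested as one member of a cytochrome P450 panel screen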
# Vero = experiment: cells; type: functional; conditions: Chlorocebus sabaeus
# Cytochrome P450 2C9 = Cytochrome P450 2C9 (Homo sapiens, UniProt P11712)
# [8] = DRD fibroblast viability loss – cell-based, non-viral oncogenic, luminescence, dose response (AID 1934); type: functional; conditions: Homo sapiens
# BJ [9] = experiment: BJ-TERT fibroblast viability loss – cell-based, RAS-independent, luminescence, dose response (AID 1933); type: functional; conditions: Homo sapiens
# BJ [10] = experiment: BJ-TERT-LT-ST fibroblast viability loss – cell-based, RAS-independent, luminescence, dose response (AID 1935); type: functional; conditions: Homo sapiens;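 further: BJ fibroblasts immortalized with TERT plus LT and ST oncogenes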
# BJ [11] = experiment: cells; type: functional, cell-based; conditions: Homo sapiens
# Cytochrome P450 2D6 = Cytochrome P450 2D6 (Homo sapiens, UniProt P10635);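 further: CYP2D6 member of a cytochrome P450 panel assay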
# Paired box protein Pax-8 = Paired box protein Pax-8 (Homo sapiens, UniProt Q06710); experiment: PAX8 transcriptional activity inhibition in RMG-I – RMG-I cells, luciferase, cherry-pick, dose response (AID 687027); type: functional, cell-based;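 further: luciferase reporter driven by Pax8 target thyroperoxidase promoter measured by SteadyGlo luminescence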
# [12] = system: Streptococcus sp. 'group A'; experiment: Streptococcus pyogenes SK(-)GAS viability under kanamycin – luminescence, BacTiterGlo, confirmation, counter-screen for streptokinase expression inhibitor project, dose response (AID 1900); type: functional, organism-based
# Streptococcus = experiment: GAS UMAA2166 growth inhibition – luminescence, BacTiterGlo, counter-screen for streptokinase expression inhibitor project, dose response (AID 1915); type: functional, organism-based;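 further: potency for reduction of bacterial viability or growth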
# Streptokinase A = biological target: T2, Streptokinase A (Streptococcus pyogenes serotype M1, UniProt P10520); experiment: viability-normalized secreted streptokinase activity reduction – plasminogen activation absorbance, OD405, dose response (AID 1914); type: functional, Streptococcus pyogenes M1 GAS;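 further: secreted streptokinase activity via plasminogen activation per viability signal from cell pellet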
# T2 sequence (P10520 whole entry): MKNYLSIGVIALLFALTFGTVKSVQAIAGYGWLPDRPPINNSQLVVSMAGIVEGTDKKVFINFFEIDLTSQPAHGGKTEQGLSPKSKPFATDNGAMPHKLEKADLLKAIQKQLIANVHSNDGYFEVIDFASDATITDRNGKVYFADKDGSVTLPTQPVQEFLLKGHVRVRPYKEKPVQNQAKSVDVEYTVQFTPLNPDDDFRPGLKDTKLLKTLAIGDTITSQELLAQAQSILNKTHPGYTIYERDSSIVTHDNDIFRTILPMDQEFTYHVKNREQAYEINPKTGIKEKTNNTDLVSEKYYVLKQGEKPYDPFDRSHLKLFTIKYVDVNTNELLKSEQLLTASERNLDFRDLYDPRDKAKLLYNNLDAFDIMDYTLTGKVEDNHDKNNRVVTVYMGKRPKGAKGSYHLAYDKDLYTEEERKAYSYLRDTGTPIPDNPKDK
# INS1 = experiment: INS-1E survival protection against cytokine death – cell-based, luminescence, retest, dose response (AID 449756); type: functional; conditions: Rattus norvegicus;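 further: cell death triggered by IL-1 beta plus TNF-alpha plus IFN-gamma mixture; protective hits raise ATP signal compared with cytokine alone wells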
# [13] = Trypanosoma cruzi growth suppression in host cells – NIH3T3 host cells, beta-gal luminescence, confirmation (AID 2044); type: functional, cell-based;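 further: intracellular parasites grown in NIH/3T3 mouse fibroblasts as host cells; luminescent beta-galactosidase reporter signal from transgenic T. cruzi replicating inside host cells; inhibitors lower the luminescence signal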
# [14] = NIH3T3 cell viability loss – ATP luminescence, mouse fibroblasts, counter-screen, dose response (AID 2010); type: functional, cell-based;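 further: cells exposed to compound for about 90 hours before reading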
# Cytochrome P450 3A4, sequence (P08684 whole entry): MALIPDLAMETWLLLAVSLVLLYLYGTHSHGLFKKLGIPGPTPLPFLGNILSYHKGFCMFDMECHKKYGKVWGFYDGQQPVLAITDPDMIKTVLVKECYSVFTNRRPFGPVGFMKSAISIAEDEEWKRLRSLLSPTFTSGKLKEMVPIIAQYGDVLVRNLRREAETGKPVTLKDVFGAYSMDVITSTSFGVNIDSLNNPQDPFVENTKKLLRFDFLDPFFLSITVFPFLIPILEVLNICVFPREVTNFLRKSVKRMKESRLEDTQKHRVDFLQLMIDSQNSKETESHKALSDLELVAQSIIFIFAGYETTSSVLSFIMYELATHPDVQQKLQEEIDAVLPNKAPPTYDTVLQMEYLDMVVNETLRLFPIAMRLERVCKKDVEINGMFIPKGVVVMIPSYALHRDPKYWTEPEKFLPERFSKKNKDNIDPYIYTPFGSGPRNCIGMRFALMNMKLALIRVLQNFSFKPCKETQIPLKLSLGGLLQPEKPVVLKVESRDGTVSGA
# Cytochrome P450 2C9, sequence (P11712 whole entry): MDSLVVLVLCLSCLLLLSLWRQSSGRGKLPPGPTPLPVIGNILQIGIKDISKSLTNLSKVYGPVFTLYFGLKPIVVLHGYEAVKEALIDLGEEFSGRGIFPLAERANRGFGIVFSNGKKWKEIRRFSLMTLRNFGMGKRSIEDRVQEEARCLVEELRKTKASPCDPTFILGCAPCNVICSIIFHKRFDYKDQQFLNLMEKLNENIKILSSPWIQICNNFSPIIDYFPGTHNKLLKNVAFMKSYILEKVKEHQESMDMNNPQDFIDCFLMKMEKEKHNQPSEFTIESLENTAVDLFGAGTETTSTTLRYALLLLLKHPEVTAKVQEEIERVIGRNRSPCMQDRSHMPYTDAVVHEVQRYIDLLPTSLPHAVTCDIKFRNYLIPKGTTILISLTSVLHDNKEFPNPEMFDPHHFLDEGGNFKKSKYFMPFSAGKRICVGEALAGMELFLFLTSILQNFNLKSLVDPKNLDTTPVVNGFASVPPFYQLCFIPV
# Paired box protein Pax-8, sequence (Q06710 whole entry): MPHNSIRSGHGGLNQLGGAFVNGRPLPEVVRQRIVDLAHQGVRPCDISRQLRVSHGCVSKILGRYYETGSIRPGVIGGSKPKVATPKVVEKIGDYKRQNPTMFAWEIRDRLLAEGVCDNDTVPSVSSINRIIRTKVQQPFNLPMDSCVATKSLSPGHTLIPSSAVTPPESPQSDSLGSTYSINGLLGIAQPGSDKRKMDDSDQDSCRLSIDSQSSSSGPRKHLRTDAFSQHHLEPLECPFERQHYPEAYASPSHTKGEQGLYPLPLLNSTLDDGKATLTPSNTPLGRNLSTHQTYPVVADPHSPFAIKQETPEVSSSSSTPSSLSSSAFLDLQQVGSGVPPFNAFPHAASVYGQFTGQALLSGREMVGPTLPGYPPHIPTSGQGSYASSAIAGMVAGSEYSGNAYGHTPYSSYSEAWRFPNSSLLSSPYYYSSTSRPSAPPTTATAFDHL
# Luciferin 4-monooxygenase, sequence (P08659 whole entry): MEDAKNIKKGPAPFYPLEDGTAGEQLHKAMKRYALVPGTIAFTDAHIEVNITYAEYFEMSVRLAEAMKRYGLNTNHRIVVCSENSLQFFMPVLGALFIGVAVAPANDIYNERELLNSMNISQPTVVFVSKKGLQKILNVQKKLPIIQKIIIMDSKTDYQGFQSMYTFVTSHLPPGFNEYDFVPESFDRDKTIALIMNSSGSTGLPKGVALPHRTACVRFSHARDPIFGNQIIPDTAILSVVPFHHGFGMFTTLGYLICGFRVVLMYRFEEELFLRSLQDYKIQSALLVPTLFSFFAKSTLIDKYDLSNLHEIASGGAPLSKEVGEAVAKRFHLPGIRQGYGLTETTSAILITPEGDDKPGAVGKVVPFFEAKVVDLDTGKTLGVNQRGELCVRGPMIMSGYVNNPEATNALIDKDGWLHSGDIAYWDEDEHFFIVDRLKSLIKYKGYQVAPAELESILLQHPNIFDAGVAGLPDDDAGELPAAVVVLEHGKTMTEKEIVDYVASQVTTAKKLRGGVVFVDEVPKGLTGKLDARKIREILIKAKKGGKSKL
# Cytochrome P450 2D6, sequence (P10635 whole entry): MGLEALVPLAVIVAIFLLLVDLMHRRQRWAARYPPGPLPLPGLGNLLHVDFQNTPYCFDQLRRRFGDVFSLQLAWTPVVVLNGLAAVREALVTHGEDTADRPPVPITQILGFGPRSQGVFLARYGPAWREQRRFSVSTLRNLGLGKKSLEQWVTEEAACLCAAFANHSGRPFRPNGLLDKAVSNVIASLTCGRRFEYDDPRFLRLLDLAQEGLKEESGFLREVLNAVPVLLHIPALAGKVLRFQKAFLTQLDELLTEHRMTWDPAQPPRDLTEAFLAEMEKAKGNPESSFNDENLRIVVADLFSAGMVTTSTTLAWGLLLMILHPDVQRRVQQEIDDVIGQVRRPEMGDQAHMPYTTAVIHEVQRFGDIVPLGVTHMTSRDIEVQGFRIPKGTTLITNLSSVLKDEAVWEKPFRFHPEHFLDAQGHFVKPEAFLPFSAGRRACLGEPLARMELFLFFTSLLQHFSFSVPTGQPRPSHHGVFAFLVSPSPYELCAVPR
smiles,measurement,setting,value
COc1ccccc1-c1cc(NC=O)c2ncc(-c3cccc(C(C)=O)c3)n2c1,IC50,H9c2,10 µM (active)
Cn1cc(CN(CCO)Cc2cccs2)c(-c2cccc(Cl)c2)n1,EC50,[1],> 112 µM (not active)
same,EC50,[2],> 112 µM (not active)
same,AC50,[3],3.25 µM (active)
Cc1ccc(Cn2c(SCc3cccnc3)nc3c2c(=O)n(C)c(=O)n3C)cc1,EC50,[4],> 120 µM (not active)
same,EC50,[5],> 120 µM (not active)
same,EC50,[6],> 120 µM (not active)
COC(=O)c1ccccc1NC(=O)c1ccc2nccnc2c1,IC50,H9c2,13.3 µM (active)
CC(OC(=O)Cn1[nH]c(=O)c2ccccc2c1=O)C(=O)Nc1cccc(Cl)c1 (stereo unspecified),IC50,H9c2,> 79 µM (inactive)
CCN1CCc2c(sc(NC(=O)c3ccc(S(=O)(=O)N4CCCCCC4)cc3)c2C(=O)NC)C1,AC50,[7],16.6 µM (active)
COc1cc2cc3c4cc(OC)c(OC)cc4cc[n+]3c(C)c2cc1OC,AC50,Cytochrome P450 3A4,10 µM (inconclusive)
COc1ccc(N(Cc2cc3cc(OC)ccc3nc2O)C(=O)c2cccnc2)cc1,IC50,H9c2,> 79 µM (inactive)
Cc1cc(NC(=O)CSc2nnc(C3CC3)n2N)no1,EC50,[4],> 120 µM (not active)
same,EC50,[5],> 120 µM (not active)
same,EC50,[6],> 120 µM (not active)
Cc1ccc(C(=O)N/C(=C\c2ccc(-c3cccc([N+](=O)[O-])c3)o2)C(=O)NCCCN2CCOCC2)cc1,CC50,Vero,> 25 µM (active)
Oc1c(/C=N/c2cccc(C(F)(F)F)c2)cnn1-c1cccc(Cl)n1,AC50,Cytochrome P450 3A4,25.1 µM (inconclusive)
same,AC50,Cytochrome P450 2C9,10 µM (inconclusive)
O=C(NCC1CCCO1)c1onc(CSc2ccccc2F)c1C(=O)O (stereo unspecified),AC50,Cytochrome P450 3A4,25.1 µM (inconclusive)
same,AC50,Cytochrome P450 2C9,6.31 µM (inconclusive)
O=C1NC(c2cccs2)Nc2ccccc21 (stereo unspecified),IC50,H9c2,18.2 µM (active)
Cc1ccc(-n2nc3c(=O)n(CCCC(=O)NCc4ccco4)nc(C)c3c2C)cc1,EC50,[4],43 µM (active)
same,EC50,[5],17.1 µM (active)
same,EC50,[6],> 120 µM (not active)
COc1ccc(-c2csc(Cc3nnc(N4CCOCC4)n3-c3ccccc3)n2)cc1OC,EC50,[4],> 120 µM (not active)
same,EC50,[5],> 120 µM (not active)
same,EC50,[6],19.4 µM (active)
O=C(c1ccco1)N1CCC2(CCCN(Cc3ccccc3)C2)CC1,AC50,Cytochrome P450 3A4,12.6 µM (inconclusive)
c1ccc(C[n+]2cccc3c4ccccc4ccc32)cc1,AC50,[7],3.41 µM (active)
CSc1nsc(SCc2ccc(Cl)cc2)n1,EC50,[8],> 150 µM (not active)
same,EC50,BJ [9],> 150 µM (not active)
same,EC50,BJ [10],> 150 µM (inconclusive)
same,EC50,BJ [11],> 150 µM (not active)
COc1cccc(-c2nn3c(-c4ccco4)nnc3s2)c1,IC50,H9c2,> 79 µM (inactive)
Nc1ncnc(N(c2ccccc2)C2CCCCC2)c1[N+](=O)[O-],AC50,Cytochrome P450 3A4,6.31 µM (inconclusive)
COc1ccc(Nc2nc(-c3sc(C)nc3C)cs2)c(OC)c1,EC50,[8],4.81 µM (active)
same,EC50,BJ [9],62.3 µM (active)
same,EC50,BJ [10],> 150 µM (inconclusive)
same,EC50,BJ [11],4.21 µM (inconclusive)
Cc1nn(C)c(C)c1/C=C(/C(=O)C(C)(C)C)n1cncn1,EC50,[4],> 120 µM (not active)
same,EC50,[6],> 120 µM (not active)
COCCn1c(=O)cnc2cnc(Oc3ccc(OC)cc3)nc21,AC50,Cytochrome P450 3A4,15.8 µM (inconclusive)
C/C(=N\NC(=S)Nc1ccc(F)cc1)C1CC1,AC50,Cytochrome P450 3A4,14.1 µM (inconclusive)
COc1ccccc1-c1nc(Nc2ccncc2)c2ccccc2n1,AC50,Cytochrome P450 2D6,25.1 µM (inconclusive)
same,AC50,Cytochrome P450 3A4,3.16 µM (inconclusive)
O=C(CCCN1C(=O)/C(=C/c2ccccc2OC(F)F)SC1=S)Nc1cccnc1,AC50,Paired box protein Pax-8,7.19 µM (active)
same,CC50,Vero,8.53 µM (active)
C[C@@H]1CCCCO[C@H](CN(C)S(=O)(=O)c2cccs2)[C@H](C)CN([C@@H](C)CO)C(=O)c2cc(NC(=O)CCC(F)(F)F)ccc2O1,AC50,Paired box protein Pax-8,27.6 µM (active)
COCCn1ccc2c(OCC(=O)Nc3ccccc3OC)cccc2c1=O,IC50,H9c2,> 79 µM (inactive)
CCOC(=O)CC1(C)NC(C(=O)O)C(C)(C)S1 (stereo unspecified),CC50,Vero,> 25 µM (active)
COc1ccc(CCNC(=O)C(=O)NCC2CCCN2S(=O)(=O)c2ccccc2)cc1OC (stereo unspecified),IC50,H9c2,> 79 µM (inactive)
COc1cc(-c2cc3nc4ccccc4n3c(N)c2C#N)cc(OC)c1OC,EC50,[4],16.4 µM (active)
same,EC50,[5],17.2 µM (active)
same,EC50,[6],> 120 µM (not active)
COc1ccc(OC)c(C(=O)/C=C/c2cccnc2)c1,CC50,Vero,17 µM (active)
COc1ccc(/C=C/C(=O)NC(=S)NNC(=O)[C@H]2C[C@@H]2c2ccccc2)cc1OC,EC50,[12],0.57 µM (active)
same,EC50,Streptococcus,20.4 µM (active)
same,CC50,Vero,> 25 µM (active)
same,EC50,Streptokinase A,> 150 µM (not active)
O=C(N/N=C/c1ccccc1O)C1CC(=O)N(c2ccc(Cl)cc2)C1 (stereo unspecified),EC50,[4],24.1 µM (active)
same,EC50,[5],15.2 µM (active)
same,AC50,INS1,3.69 µM (active)
same,EC50,[6],7.99 µM (active)
CCOC(=O)CCCc1c[nH]c2ccccc12,AC50,Cytochrome P450 3A4,31.6 µM (inconclusive)
O=C1NC(=S)NC(=O)C1=Cc1c[nH]c2ccccc12,CC50,Vero,> 25 µM (active)
COc1cc(OC)cc(C(=O)Nc2ccc(-c3nc4ccccc4o3)cc2)c1,EC50,[13],1.06 µM (active)
same,IC50,H9c2,> 79 µM (inactive)
same,EC50,[14],> 16 µM (not active)
O=C1NC(=O)C(=CNc2ccccc2[N+](=O)[O-])C(=O)N1,EC50,[4],20.7 µM (active)
same,EC50,[5],> 120 µM (not active)
same,EC50,[6],> 120 µM (not active)
